Experimental data reported in patent US9365583B2, “Substituted pyrazoles and uses thereof” (Genentech, Inc., priority 2013, dated 2016).
pKi: −log10 of the molar value.

target: T1, N-terminally GST-tagged DLK (catalytic domain amino acid 1-520) (Homo sapiens, UniProt Q12852); assay: DLK TR-FRET inhibition assay; assay type: biochemical; details: 5 nM GST-DLK, 40 nM HIS-MKK4 K131M substrate, 30 μM ATP, 60 minutes at ambient temperature
T1 construct: N-terminally GST-tagged DLK (catalytic domain amino acid 1-520); purchased Carna Bioscience
T1 sequence (Q12852 1-520): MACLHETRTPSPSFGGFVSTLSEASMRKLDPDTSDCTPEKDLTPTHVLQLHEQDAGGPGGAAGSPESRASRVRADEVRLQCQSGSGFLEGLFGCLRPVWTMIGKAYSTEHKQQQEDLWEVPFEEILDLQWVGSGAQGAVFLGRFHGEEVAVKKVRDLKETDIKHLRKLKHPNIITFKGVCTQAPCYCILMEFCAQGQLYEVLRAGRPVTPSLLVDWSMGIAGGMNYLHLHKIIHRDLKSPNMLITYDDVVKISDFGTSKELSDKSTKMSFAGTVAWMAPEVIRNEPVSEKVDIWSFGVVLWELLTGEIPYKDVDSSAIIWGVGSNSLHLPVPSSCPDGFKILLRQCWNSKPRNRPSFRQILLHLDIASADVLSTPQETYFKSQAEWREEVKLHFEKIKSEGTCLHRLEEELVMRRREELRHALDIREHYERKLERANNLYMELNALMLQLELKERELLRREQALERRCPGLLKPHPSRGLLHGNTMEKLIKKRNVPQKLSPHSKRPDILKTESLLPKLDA
How it was run: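 5 nM GST-DLK (aa 1-520), 40 nM HIS-MKK4 K131M and 30 μM ATP reacted 60 min at ambient temperature in HEPES pH 7.5 buffer with 10 mM MgCl2, compound 1:3 serially diluted from 20 uM. TR-FRET detection of phospho-MKK4 used Eu-cryptate anti-phospho-MKK4 plus D2 anti-HIS, read after 3 h (665/615 nm).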

| SMILES | pKi |
| --- | --- |
| CC(C)n1nc(-c2cnc(N)c(OC(F)F)c2)cc1[C@H]1[C@@H]2C[C@@H](N3CCN(C)CC3)C[C@@H]21 [compound 199, 3-(difluoromethoxy)-5-(1-isopropyl-5-((1R,3s,5S,6r)-3-(4-methyl-piperazin-1-yl)bicyclo[3.1.0]hexan-6-yl)-1H-pyrazol-3-yl) pyridin-2-amine] | 8.74 |
| CC(C)n1nc(-c2cnc(N)c(C(F)(F)F)c2)cc1[C@H]1[C@@H]2C[C@H](N3C[C@@H]4C[C@H]3CN4C)C[C@@H]21 [compound 200, 5-(1-isopropyl-5-((1R,3r,5S,6S)-3-((1S,4S)-5-methyl-2,5-diazabicyclo [2.2.1]heptan-2-yl)bicyclo [3.1.0]hexan-6-yl)-1H-pyrazol-3-yl)-3-(trifluoromethyl)pyridin-2-amine] | 8.70 |
| CC(C)n1nc(-c2cnc(N)c(OC(F)(F)F)c2)cc1[C@H]1[C@@H]2C[C@H](N3C[C@@H]4C[C@H]3CN4C)C[C@@H]21 [compound 201, 5-(1-isopropyl-5-((1R,3r,5S,6S)-3-((1S,4S)-5-methyl-2,5-diazabicyclo [2.2.1]heptan-2-yl)bicyclo [3.1.0]hexan-6-yl)-1H-pyrazol-3-yl)-3-(trifluoromethoxy) pyridin-2-amine] | 8.89 |
| CC(C)n1nc(-c2cnc(N)c(OC(F)F)c2)cc1[C@H]1[C@@H]2C[C@H](N3C[C@@H]4C[C@H]3CN4C)C[C@@H]21 [compound 202, 3-(difluoromethoxy)-5-(1-isopropyl-5-((1R,3r,5S,6S)-3-((1S,4S)-5-methyl-2,5-diazabicyclo[2.2.1]heptan-2-yl)bicyclo[3.1.0]hexan-6-yl)-1H-pyrazol-3-yl) pyridin-2-amine] | 8.92 |
| CC(C)n1nc(-c2cnc(N)c(OC(F)(F)F)c2)cc1[C@H]1[C@@H]2C[C@@H](N3CCCN(C)CC3)C[C@@H]21 [compound 203, 5-(1-isopropyl-5-((1R,3s,5S,6r)-3-(4-methyl-1,4-diazepan-1-yl)bicyclo[3.1.0]hexan-6-yl)-1H-pyrazol-3-yl)-3-(trifluoromethoxy) pyridin-2-amine] | 9.05 |
| CC(C)n1nc(-c2cnc(N)c(OC(F)(F)F)c2)cc1[C@H]1[C@@H]2C[C@H](N3CCCN(C)CC3)C[C@@H]21 [compound 204, 5-(1-isopropyl-5-((1R,3r,5S,6r)-3-(4-methyl-1,4-diazepan-1-yl)bicyclo[3.1.0]hexan-6-yl)-1H-pyrazol-3-yl)-3-(trifluoromethoxy) pyridin-2-amine] | 8.92 |
| CC(C)n1nc(-c2cnc(N)c(OC(F)F)c2)cc1[C@H]1[C@@H]2C[C@@H](N3CCCN(C)CC3)C[C@@H]21 [compound 205, 3-(difluoromethoxy)-5-(1-isopropyl-5-((1R,3s,5S,6r)-3-(4-methyl-1,4-diazepan-1-yl)bicyclo [3.1.0]hexan-6-yl)-1H-pyrazol-3-yl)pyridin-2-amine] | 8.54 |
| CC(C)n1nc(-c2cnc(N)c(OC(F)F)c2)cc1[C@H]1[C@@H]2C[C@@H](N3C[C@@H]4C[C@H]3CN4C)C[C@@H]21 [compound 206, 3-(difluoromethoxy)-5-(1-isopropyl-5-((1R,3s,5S,6S)-3-((1S,4S)-5-methyl-2,5-diazabicyclo [2.2.1]heptan-2-yl)bicyclo[3.1.0]hexan-6-yl)-1H-pyrazol-3-yl) pyridin-2-amine] | 8.68 |
| CC(C)n1nc(-c2cnc(N)c(C(F)(F)F)c2)cc1[C@H]1[C@@H]2C[C@@H](N3C[C@@H]4C[C@H]3CN4C)C[C@@H]21 [compound 207, 5-(1-isopropyl-5-((1R,3s,5S,6S)-3-((1S,4S)-5-methyl-2,5-diazabicyclo [2.2.1]heptan-2-yl)bicyclo [3.1.0]hexan-6-yl)-1H-pyrazol-3-yl)-3-(trifluoromethyl) pyridin-2-amine] | 8.44 |
| CC(C)n1nc(-c2cnc(N)c(OC(F)F)c2)cc1[C@H]1[C@@H]2C[C@H](N3CCCN(C)CC3)C[C@@H]21 [compound 208, 3-(difluoromethoxy)-5-(1-isopropyl-5-((1R,3r,5S,6r)-3-(4-methyl-1,4-diazepan-1-yl)bicyclo[3.1.0]hexan-6-yl)-1H-pyrazol-3-yl) pyridin-2-amine] | 8.82 |
| CC(C)n1nc(-c2cnc(N)c(OC(F)(F)F)c2)cc1[C@H]1[C@@H]2C[C@@H](N3C[C@@H]4C[C@H]3CN4C)C[C@@H]21 [compound 209, 5-(1-isopropyl-5-((1R,3s,5S,6S)-3-((1S,4S)-5-methyl-2,5-diazabicyclo [2.2.1]heptan-2-yl)bicyclo [3.1.0]hexan-6-yl)-1H-pyrazol-3-yl)-3-(trifluoromethoxy) pyridin-2-amine] | 8.59 |
| CC(C)n1nc(-c2cnc(N)c(C(F)(F)F)c2)cc1[C@H]1[C@@H]2C[C@@H](N3CCCN(C)CC3)C[C@@H]21 [compound 210, 5-(1-isopropyl-5-((1R,3s,5S,6r)-3-(4-methyl-1,4-diazepan-1-yl)bicyclo[3.1.0]hexan-6-yl)-1H-pyrazol-3-yl)-3-(trifluoromethyl) pyridin-2-amine] | 8.70 |
| CC(C)n1nc(-c2cnc(N)c(C(F)(F)F)c2)cc1[C@H]1[C@@H]2C[C@H](N3CCCN(C)CC3)C[C@@H]21 [compound 211, 5-(1-isopropyl-5-((1R,3r,5S,6r)-3-(4-methyl-1,4-diazepan-1-yl)bicyclo[3.1.0]hexan-6-yl)-1H-pyrazol-3-yl)-3-(trifluoromethyl) pyridin-2-amine] | 8.49 |
| CO[C@H]1CCN([C@H]2C[C@@H]3[C@H](C2)[C@H]3c2cc(-c3cnc(N)c(OC(F)F)c3)nn2C(C)C)C1 [compound 212, 3-(difluoromethoxy)-5-(1-isopropyl-5-((1R,3r,5S,6S)-3-((S)-3-methoxypyrrolidin-1-yl)bicyclo [3.1.0]hexan-6-yl)-1H-pyrazol-3-yl)pyridin-2-amine] | 8.36 |
| CC(C)n1nc(-c2cnc(N)c(OC(F)F)c2)cc1[C@H]1[C@@H]2C[C@H](F)C[C@@H]21 [compound 213, 3-(difluoromethoxy)-5-(5-((1R,3r,5S,6r)-3-fluorobicyclo[3.1.0]hexan-6-yl)-1-isopropyl-1H-pyrazol-3-yl)pyridin-2-amine] | 8.29 |
| CO[C@H]1CCN([C@@H]2C[C@@H]3[C@H](C2)[C@H]3c2cc(-c3cnc(N)c(OC(F)(F)F)c3)nn2C(C)C)C1 [compound 214, 5-(1-isopropyl-5-((1R,3s,5S,6S)-3-((S)-3-methoxypyrrolidm-1-yl)bicyclo[3.1.0]hexan-6-yl)-1H-pyrazol-3-yl)-3-(trifluoromethoxy) pyridin-2-amine] | 8.82 |
| CO[C@H]1CCN([C@@H]2C[C@@H]3[C@H](C2)[C@H]3c2cc(-c3cnc(N)c(OC(F)F)c3)nn2C(C)C)C1 [compound 215, 3-(difluoromethoxy)-5-(1-isopropyl-5-((1R,3s,5S,6S)-3-((S)-3-methoxypyrrolidin-1-yl)bicyclo [3.1.0]hexan-6-yl)-1H-pyrazol-3-yl)pyridin-2-amine] | 8.85 |
| CC(C)n1nc(-c2cnc(N)c(OC(F)F)c2)cc1[C@H]1[C@@H]2CC(F)(F)C[C@@H]21 [compound 216, 5-(5-((1R,5S,6r)-3,3-difluorobicyclo [3.1.0]hexan-6-yl)-1-isopropyl-1H-pyrazol-3-yl)-3-(difluoro-methoxy)pyridin-2-amine] | 8.18 |
